The results in this text go back to patent US20240109877A1, “PYRIMIDINES FOR DEGRADING BRUTON'S TYROSINE KINASE” (AbbVie Inc., priority 2022, published 2024).

Bounds are passed on as bounds.

The target of assay [1] is His-tagged Cereblon/DDB1 complex (Homo sapiens (Human), UniProt Q96SW2). As to the kind of experiment: Cereblon Binding Assay (AlphaLISA Human Cereblon Binding Kit, competition). To be noted: 10 μM top dose, biotin-labeled ligand competition; read-out: CRBN IC50. Here is the method: Cereblon binding was measured in vitro using an AlphaLISA® Human Cereblon Binding Kit (PerkinElmer, Waltham, MA) according to the manufacturer's protocol (“Alpha” refers to Amplified Luminescent Proximity Homogeneous Assay). In this assay, donor beads and acceptor beads come into proximity through ligand binding to CRBN protein. Excitation of the donor beads provokes the release of singlet oxygen that triggers a cascade of energy transfer reactions to the acceptor beads, resulting in a sharp peak in light emission at 615 nm.
Specifically, nickel chelate acceptor beads (PerkinElmer AL108M) were used to capture a 6XHIS-tagged CRBN protein, and streptavidin-coated donor beads (PerkinElmer 6760002) were used to capture 50 nM biotinylated ligand. Each well included the following: sample or control; HIS-tagged CRBN protein; biotinylated ligand; nickel chelate acceptor beads; and streptavidin donor beads.
Competition Assay: Test compounds in 100% dimethyl sulfoxide were plated onto white, low volume 384 well plates (PerkinElmer Proxiplate 384 plus # 6008289) using an Labcyte Echo acoustic dispenser, in an 11-point dose curve and 3-fold dilution scheme. […] Plates were incubated for 30 minutes at room temperature.
Detection: 10 μL detection reagents were added in low light conditions containing nickel chelate acceptor beads and streptavidin donor beads (Perkin Elmer 6760002), resulting in a final concentration 20 ng/ml. Plates were incubated 1 hour and read on a PerkinElmerTM Envision™ plate reader (680 nm excitation and […] settings). The IC50 of each compound was determined by calculating percent inhibition from no drug and no protein controls, and the Ki of each compound was calculated using the Cheng-Prusoff transformation. From the IC50 values were determined. The IC50 values are reported in Table 2 in the CRBN IC50 (nM) column.
A general note: Bead proximity is the source of the signal in Alpha formats.

Assay [2] addresses Human BTK enzyme, wild-type (Homo sapiens (Human), UniProt Q06187). As to the kind of experiment: BTK Screening: Btk kinase activity, electrophoretic mobility shift assay (MSA). Type of assay: biochemical. Conditions: 0.5 nM BTK enzyme, 50 μM ATP, 15 minutes pre-incubation, 3 hours at 25° C. As for the experimental part:
Btk kinase activity was measured in vitro using an electrophoretic mobility shift assay (MSA). The ability of Btk to phosphorylate a fluorescent peptide substrate (FAM-GEEPLYWSFPAKKK-NH2) was measured. The kinase reactions were assembled in a total volume of 25 μL per well in 384 well plates. The following was added to each well: compound buffer (or control); enzyme buffer; and substrate buffer, as further described below.
Specifically the following was added: (1) compound buffer or control: 5μL of 5× compound buffer [(5× compound buffer comprised of: 1× Master Buffer, X μM test compound in 5% dimethyl sulfoxide; (2× Master Buffer comprised of 200 mM HEPES, pH7.5, 0.2% BSA, and 0.02% Triton X-100)]; and (2) enzyme buffer: 10 μL of 2.5× enzyme buffer (1× Master Buffer, 12.5 mM MgCl2, 2.5 mM DTT, 25 μM sodium orthovanadate, 25 μM beta-glycerophosphate, and 1.25 nM BTK enzyme). Human BTK enzyme Nanosyn-293HEK, wild-type, available from Nanosyn, Santa Clara, CA). Enzyme and compound were pre-incubated for 15 minutes. Additionally, the following was added: (3) substrate buffer: 10 μL of 2.5× substrate buffer (1× Master Buffer, […], and 2.5 μM of the peptide substrate FAM). Each plate was incubated at 25° C. for 3 hours. The reaction was terminated by adding to each well: 45 μL of 1.55× stop buffer (1× Master Buffer and 31 mM EDTA). The final reaction mixture was as follows: 100 mM HEPES, pH7.5; 0.1% BSA; 0.01% Triton X-100; 1 mM DTT; 5 mM MgCl2; 10 μM sodium orthovanadate; 10 μM beta-glycerophosphate; 50 μM ATP; 1% dimethyl sulfoxide (from compound); 1μM fluorescent peptide substrate and 0.5 nM BTK- enzyme. The terminated reactions were analyzed using a 12 channel LABCHIP® 3000 microfluidic detection instrument (available from Caliper Life Sciences, Waltham, MA). […] As substrate and product peptides were separated, two peaks of fluorescence were observed. Change in the relative fluorescence intensity of the substrate and product peaks was the parameter measured, reflecting enzyme activity. In the presence of an active compound, the ratio between product and substrate was altered. The signal of the product decreased, while the signal of the substrate increased. Capillary electrophoregrams (RDA acquisition files) were analyzed using HTS Well Analyzer software (available from Caliper Life Sciences, Waltham, MA).
Activity in each sample was determined as the product to sum ratio (PSR): P/(S+P), where P was the peak height of the product peptide and S was the peak height of the substrate peptide. For each compound, enzyme activity was measured at various concentrations (12 concentrations of compound spaced by 3× dilution intervals). Negative control samples (0% inhibition in the absence of an active compound) and positive control samples (100% inhibition, in the presence of 20 mM EDTA) were assembled in replicates of four and were used to calculate % inhibition values for each active compound at each concentration. Percent inhibition (Pinh) was determined using following equation: Pinh=(PSR0%−PSRinh)/(PSR0%−PSR100%)*100, where PSRinh was the product sum ratio in the presence of inhibitor, PSR0% was the average product sum ratio in the absence of active compound and PSR100% was the average product sum ratio in 100%-inhibition control samples.
The IC50 values of active compounds were determined by 4 parameter sigmoidal dose response model fitting of the inhibition curves (Pinh versus inhibitor concentration) using XLfit® 4 software (IDBS, Boston, MA). The IC50 values are reported in Table 2 in the BTK IC50 (nM) column.

With `Cc1cc(-c2cc(Nc3ccc(N4CCN(CCc5ccc(N6CCC(=O)NC6=O)cc5)C[C@@H]4C)cn3)ncn2)ccc1[C@@H](C)NC(=O)c1nc(C(C)(C)C)no1` [Example 1, 3-tert-butyl-N-[(1R)-1-{4-[6-({5-[(2S)-4-{2-[4-(2,4-dioxo-1,3-diazinan-1-yl)phenyl]ethyl}-2-methylpiperazin-1-yl]pyridin-2-yl}amino)pyrimidin-4-yl]-2-methylphenyl}ethyl]-1,2,4-oxadiazole-5-carboxamide], the IC50 was 1260 nM in assay [1] and 0.0977 nM in assay [2].
On the same counts, the results for `Cc1cc(-c2cc(Nc3ccc(N4CCN(CCc5ccc(N6CCC(=O)NC6=O)cc5)C[C@H]4C)cn3)ncn2)ccc1[C@@H](C)NC(=O)c1nc(C(C)(C)C)no1` [Example 2, 3-tert-butyl-N-[(1R)-1-{4-[6-({5-[(2R)-4-{2-[4-(2,4-dioxo-1,3-diazinan-1-yl)phenyl]ethyl}-2-methylpiperazin-1-yl]pyridin-2-yl}amino)pyrimidin-4-yl]-2-methylphenyl}ethyl]-1,2,4-oxadiazole-5-carboxamide] are 749 nM and 0.128 nM.
Turning to `Cc1cc(-c2cc(Nc3ccc(N4CCN(CCc5ccc(N6CCC(=O)NC6=O)cc5)CC4)cn3)ncn2)ccc1[C@@H](C)NC(=O)c1nc(C(C)(C)C)no1` [Example 3, 3-tert-butyl-N-{(1R)-1-[4-(6-{[5-(4-{2-[4-(2,4-dioxo-1,3-diazinan-1-yl)phenyl]ethyl}piperazin-1-yl)pyridin-2-yl]amino}pyrimidin-4-yl)-2-methylphenyl]ethyl}-1,2,4-oxadiazole-5-carboxamide], the values for the half-inhibitory concentration (IC50) in assay [1] and in assay [2] were 9570 nM and 0.0339 nM, respectively.
Take `Cc1cc(-c2cc(Nc3ccc(N4CCN(CCc5ccc(N6CCC(=O)NC6=O)c(F)c5)C[C@@H]4C)cn3)ncn2)ccc1[C@@H](C)NC(=O)c1nc(C(C)(C)C)no1` [Example 4, 3-tert-butyl-N-[(1R)-1-{4-[6-({5-[(2S)-4-{2-[4-(2,4-dioxo-1,3-diazinan-1-yl)-3-fluorophenyl]ethyl}-2-methylpiperazin-1-yl]pyridin-2-yl}amino)pyrimidin-4-yl]-2-methylphenyl}ethyl]-1,2,4-oxadiazole-5-carboxamide]: the IC50 is at least 10000 nM in assay [1] and 0.141 nM in assay [2].
Turning to `Cc1cc(-c2cc(Nc3ccc(N4CCN(CCc5ccc(N6CCC(=O)NC6=O)c(F)c5)C[C@H]4C)cn3)ncn2)ccc1[C@@H](C)NC(=O)c1nc(C(C)(C)C)no1` [Example 5, 3-tert-butyl-N-[(1R)-1-{4-[6-({5-[(2R)-4-{2-[4-(2,4-dioxo-1,3-diazinan-1-yl)-3-fluorophenyl]ethyl}-2-methylpiperazin-1-yl]pyridin-2-yl}amino)pyrimidin-4-yl]-2-methylphenyl}ethyl]-1,2,4-oxadiazole-5-carboxamide], the IC50 in assay [1] turned out to be 648 nM; in assay [2] it was 0.113 nM.
For `CC[C@H]1CN(CCc2ccc(N3CCC(=O)NC3=O)cc2)CCN1c1ccc(Nc2cc(-c3ccc([C@@H](C)NC(=O)c4nc(C(C)(C)C)no4)c(C)c3)ncn2)nc1` [Example 6, 3-tert-butyl-N-[(1R)-1-{4-[6-({5-[(2S)-4-{2-[4-(2,4-dioxo-1,3-diazinan-1-yl)phenyl]ethyl}-2-ethylpiperazin-1-yl]pyridin-2-yl}amino)pyrimidin-4-yl]-2-methylphenyl}ethyl]-1,2,4-oxadiazole-5-carboxamide], the IC50 in assay [1] amounted to 378 nM; in assay [2], 0.0403 nM.
As for `CC[C@H]1CN(CCc2ccc(N3CCC(=O)NC3=O)c(F)c2)CCN1c1ccc(Nc2cc(-c3ccc([C@@H](C)NC(=O)c4nc(C(C)(C)C)no4)c(C)c3)ncn2)nc1` [Example 7, 3-tert-butyl-N-[(1R)-1-{4-[6-({5-[(2S)-4-{2-[4-(2,4-dioxo-1,3-diazinan-1-yl)-3-fluorophenyl]ethyl}-2-ethylpiperazin-1-yl]pyridin-2-yl}amino)pyrimidin-4-yl]-2-methylphenyl}ethyl]-1,2,4-oxadiazole-5-carboxamide], the IC50 in assay [1] amounted to 609 nM; in assay [2], 0.0979 nM.
In the case of `CC[C@@H]1CN(CCc2ccc(N3CCC(=O)NC3=O)cc2)CCN1c1ccc(Nc2cc(-c3ccc([C@@H](C)NC(=O)c4nc(C(C)(C)C)no4)c(C)c3)ncn2)nc1` [Example 8, 3-tert-butyl-N-[(1R)-1-{4-[6-({5-[(2R)-4-{2-[4-(2,4-dioxo-1,3-diazinan-1-yl)phenyl]ethyl}-2-ethylpiperazin-1-yl]pyridin-2-yl}amino)pyrimidin-4-yl]-2-methylphenyl}ethyl]-1,2,4-oxadiazole-5-carboxamide], the IC50 in assay [1] stood at 3380 nM; in assay [2], 0.0804 nM.
As for `Cc1cc(-c2cc(Nc3ccc(N4CCN(CCc5ccc(N6CCC(=O)NC6=O)cc5)CC4(C)C)cn3)ncn2)ccc1[C@@H](C)NC(=O)c1nc(C(C)(C)C)no1` [Example 9, 3-tert-butyl-N-{(1R)-1-[4-(6-{[5-(4-{2-[4-(2,4-dioxo-1,3-diazinan-1-yl)phenyl]ethyl}-2,2-dimethylpiperazin-1-yl)pyridin-2-yl]amino}pyrimidin-4-yl)-2-methylphenyl]ethyl}-1,2,4-oxadiazole-5-carboxamide], the IC50 is 658 nM in assay [1] and 0.0988 nM in assay [2].
On the same counts, the results for `Cc1cc(-c2cc(Nc3ccc(N4CCN(CCc5ccc(N6CCC(=O)NC6=O)cc5)CC4)cn3)ncn2)c(F)cc1[C@@H](C)NC(=O)c1nc(C(C)(C)C)no1` [Example 12, 3-tert-butyl-N-{(1R)-1-[4-(6-{[5-(4-{2-[4-(2,4-dioxo-1,3-diazinan-1-yl)phenyl]ethyl}piperazin-1-yl)pyridin-2-yl]amino}pyrimidin-4-yl)-5-fluoro-2-methylphenyl]ethyl}-1,2,4-oxadiazole-5-carboxamide] are 2010 nM and 0.0363 nM.
For the compound `Cc1cc(-c2cc(Nc3ccc(N4CCN(CCc5ccc(N6CCC(=O)NC6=O)cc5)C[C@@H]4C(C)C)cn3)ncn2)ccc1[C@@H](C)NC(=O)c1nc(C(C)(C)C)no1` [Example 13, 3-tert-butyl-N-[(1R)-1-{4-[6-({5-[(2S)-4-{2-[4-(2,4-dioxo-1,3-diazinan-1-yl)phenyl]ethyl}-2-(propan-2-yl)piperazin-1-yl]pyridin-2-yl}amino)pyrimidin-4-yl]-2-methylphenyl}ethyl]-1,2,4-oxadiazole-5-carboxamide], the figures for the IC50 in assay [1] and in assay [2] were at least 10000 nM and 0.14 nM, respectively.

Usually IC50 stands for the concentration needed to halve the response being measured.
